Test results as given in ChEMBL document CHEMBL4359892, “Discovery of novel indolylarylsulfones as potent HIV-1 NNRTIs via structure-guided scaffold morphing” (Eur J Med Chem, 2019).

Experiments:
[1] = Acute toxicity in Kunming mouse assessed as effect on lethargy at 1000 mg/kg, ig administered as single dose and observed every day for 1 week; type: organism-based; conditions: in vivo, po, 168 h
[2] = test system: Human immunodeficiency virus 1; assay: Antiviral activity against drug resistant HIV-1 harboring reverse transcriptase K103N mutant infected in human MT4 cells assessed as reduction in virus-induced cytopathic effect incubated for 5 days by MTT assay; type: functional, organism-based; conditions: Human immunodeficiency virus 1, MT4, 120 h
[3] = test system: Human immunodeficiency virus 1; assay: Antiviral activity against drug resistant HIV-1 RES056 harboring reverse transcriptase K103N/Y181C double mutant infected in human MT4 cells assessed as reduction in virus-induced cytopathic effect incubated for 5 days by MTT assay; type: functional, organism-based; conditions: Human immunodeficiency virus 1, RES056, MT4, 120 h
[4] = Sub-acute toxicity in Kunming mouse assessed as effect on anorexia at 50 mg/kg, po administered once every other day for 14 days; type: organism-based; conditions: in vivo, 336 h
[5] = Cytotoxicity against human MT4 cells assessed as reduction in cell viability incubated for 5 days by MTT assay; type: cell-based
[6] = Sub-acute toxicity in Kunming mouse assessed as effect on clonic convulsion at 50 mg/kg, po administered once every other day for 14 days; type: organism-based; conditions: in vivo, 336 h
[7] = Acute toxicity in Kunming mouse assessed as effect on animal growth at 1000 mg/kg, ig administered as single dose and observed every day for 1 week; type: organism-based; conditions: in vivo, po, 168 h
[8] = Sub-acute toxicity in Kunming mouse assessed as effect on animal death at 50 mg/kg, po administered once every other day for 14 days; type: organism-based; conditions: in vivo, 336 h
[9] = Acute toxicity in Kunming mouse assessed as effect on ruffled fur at 1000 mg/kg, ig administered as single dose and observed every day for 1 week; type: organism-based; conditions: in vivo, po, 168 h
[10] = Sub-acute toxicity in Kunming mouse assessed as effect on animal growth at 50 mg/kg, po administered once every other day for 14 days; type: organism-based; conditions: in vivo, 336 h
[11] = test system: Human immunodeficiency virus 1; assay: Antiviral activity against drug resistant HIV-1 harboring reverse transcriptase Y188L mutant infected in human MT4 cells assessed as reduction in virus-induced cytopathic effect incubated for 5 days by MTT assay; type: functional, organism-based; conditions: Human immunodeficiency virus 1, MT4, 120 h
[12] = test system: Human immunodeficiency virus 1; assay: Antiviral activity against drug resistant HIV-1 harboring reverse transcriptase F227L/V106A double mutant infected in human MT4 cells assessed as reduction in virus-induced cytopathic effect incubated for 5 days by MTT assay; type: functional, organism-based; conditions: Human immunodeficiency virus 1, MT4, 120 h
[13] = Sub-acute toxicity in Kunming mouse assessed as spleen damage at 50 mg/kg, po administered once every other day for 14 days measured on day 14 by HE-staining based assay; type: organism-based; conditions: in vivo, 336 h
[14] = test system: Human immunodeficiency virus 1; assay: Antiviral activity against HIV-1 3B infected in human MT4 cells assessed as reduction in virus-induced cytopathic effect incubated for 5 days by MTT assay; type: functional, organism-based; conditions: Human immunodeficiency virus 1, 3B, MT4, 120 h
[15] = test system: Human immunodeficiency virus 1; assay: Antiviral activity against drug resistant HIV-1 harboring reverse transcriptase E138K mutant infected in human MT4 cells assessed as reduction in virus-induced cytopathic effect incubated for 5 days by MTT assay; type: functional, organism-based; conditions: Human immunodeficiency virus 1, MT4, 120 h
[16] = Sub-acute toxicity in Kunming mouse assessed as heart damage at 50 mg/kg, po administered once every other day for 14 days measured on day 14 by HE-staining based assay; type: organism-based; conditions: in vivo, 336 h
[17] = Sub-acute toxicity in Kunming mouse assessed as effect on ruffled fur at 50 mg/kg, po administered once every other day for 14 days; type: organism-based; conditions: in vivo, 336 h
[18] = test system: Human immunodeficiency virus 1; assay: Antiviral activity against drug resistant HIV-1 harboring reverse transcriptase Y181C mutant infected in human MT4 cells assessed as reduction in virus-induced cytopathic effect incubated for 5 days by MTT assay; type: functional, organism-based; conditions: Human immunodeficiency virus 1, MT4, 120 h
[19] = Sub-acute toxicity in Kunming mouse assessed as lungs damage at 50 mg/kg, po administered once every other day for 14 days measured on day 14 by HE-staining based assay; type: organism-based; conditions: in vivo, 336 h
[20] = Acute toxicity in Kunming mouse assessed as effect on clonic convulsion at 1000 mg/kg, ig administered as single dose and observed every day for 1 week; type: organism-based; conditions: in vivo, po, 168 h
[21] = test system: Human immunodeficiency virus 1; assay: Antiviral activity against drug resistant HIV-1 harboring reverse transcriptase L100I mutant infected in human MT4 cells assessed as reduction in virus-induced cytopathic effect incubated for 5 days by MTT assay; type: functional, organism-based; conditions: Human immunodeficiency virus 1, MT4, 120 h
[22] = Selectivity index, ratio of CC50 for human MT4 cells to EC50 for antiviral activity against HIV RES056; type: toxicity; conditions: read-out: Ratio CC50/EC50
[23] = Selectivity index, ratio of CC50 for human MT4 cells to EC50 for antiviral activity against HIV IIIB; type: toxicity; conditions: read-out: Ratio CC50/EC50
[24] = Acute toxicity in Kunming mouse assessed as effect on body weight gain at 1000 mg/kg, ig administered as single dose and observed every day for 1 week; type: organism-based; conditions: in vivo, po, 168 h
[25] = Sub-acute toxicity in Kunming mouse assessed as effect on lethargy at 50 mg/kg, po administered once every other day for 14 days; type: organism-based; conditions: in vivo, 336 h
[26] = Acute toxicity in Kunming mouse assessed as effect on animal death at 1000 mg/kg, ig administered as single dose and observed every day for 1 week; type: organism-based; conditions: in vivo, po, 168 h
[27] = Sub-acute toxicity in Kunming mouse assessed as liver damage at 50 mg/kg, po administered once every other day for 14 days measured on day 14 by HE-staining based assay; type: organism-based; conditions: in vivo, 336 h
[28] = Acute toxicity in Kunming mouse assessed as effect on anorexia at 1000 mg/kg, ig administered as single dose and observed every day for 1 week; type: organism-based; conditions: in vivo, po, 168 h
[29] = Sub-acute toxicity in Kunming mouse assessed as kidney damage at 50 mg/kg, po administered once every other day for 14 days measured on day 14 by HE-staining based assay; type: organism-based; conditions: in vivo, 336 h
[30] = Sub-acute toxicity in Kunming mouse assessed as increase in body weight at 50 mg/kg, po administered once every other day for 14 days; type: organism-based; conditions: in vivo, 336 h

## Cc1cc(C)cc(S(=O)(=O)c2c(C(=O)N[C@H]3CCN(CC(N)=O)C3)[nH]c3ccc(Cl)cc23)c1
[1]
  Activity: Non-Toxic
[2]
  EC50: 25 nM
[3]
  EC50: > 28100 nM
[4]
  Activity: Non-Toxic
[5]
  CC50 at 120 h: 28100 nM
[6]
  Activity: Non-Toxic
[7]
  Activity: Non-Toxic
[8]
  Activity: Non-Toxic
[9]
  Activity: Non-Toxic
[10]
  Activity: Non-Toxic
[11]
  EC50: 310 nM
[12]
  EC50: 94 nM
[13]
  Activity: Non-Toxic
[14]
  EC50: 9.8 nM
[15]
  EC50: 14 nM
[16]
  Activity: Non-Toxic
[17]
  Activity: Non-Toxic
[18]
  EC50: 96 nM
[19]
  Activity: Non-Toxic
[20]
  Activity: Non-Toxic
[21]
  EC50: 11 nM
[22]
  selectivity ratio: < 1
[23]
  selectivity ratio: 2880
[24]
  Activity: Non-Toxic
[25]
  Activity: Non-Toxic
[26]
  Activity: Non-Toxic
[27]
  Activity: Non-Toxic
[28]
  Activity: Non-Toxic
[29]
  Activity: Non-Toxic
[30]
  Activity: Non-Toxic
